System: vasopressin receptor
Format: cell-based
Settings: HEK293T cells (FIG. 8), compared to vasopressin

CC[C@H](C)[C@@H]1NC(=O)[C@H](Cc2ccc(O)cc2)NC(=O)[C@@H](N)CSSC[C@@H](C(=O)N2CCC[C@H]2C(=O)N[C@@H](CC(C)C)C(=O)NCC(N)=O)NC(=O)[C@H](CC(N)=O)NC(=O)[C@H](CCC(N)=O)NC1=O [oxytocin]
beta arrestin signaling (green fluorescence), speed: significantly slower

Source: patent publication US12613237B2, “Biosensors for detecting arrestin signaling” (MONTANA MOLECULAR, LLC, priority 2018, dated 2026)
